Source: the Kinase Knowledgebase extract (Sharma et al. 2016)

Biological target: PIK3CB;PIK3CG;PIK3CD;PIK3CA (human) (UniProt P48736)
Test: Enzyme Assay

Row | IC50 | Compound
1 | 349 nM | COc1ccc2c(c1)S(=O)(=O)Cc1c(C(=O)N3CCOCC3)nn(-c3ccccc3)c1-2
2 | 179 nM | O=C(c1nn(-c2cccc(OCCn3ccnc3)c2)c2c1CS(=O)(=O)c1ccccc1-2)N1CCOCC1
3 | 926 nM | Cc1cccc(-n2nc(C(=O)N3CCOCC3)c3c2-c2ccccc2S(=O)(=O)C3)c1
4 | 733 nM | O=C(CC1CCOCC1)N1CCC(n2nc(C(=O)N3CCOCC3)c3c2-c2ccccc2S(=O)(=O)C3)C1 (centres undefined)
5 | 994 nM | CS(=O)(=O)N1CCCC(n2nc(C(=O)N3CCOCC3)c3c2-c2ccccc2S(=O)(=O)C3)C1 (centres undefined)
6 | 2000 nM | O=C(c1nn(-c2ccccc2F)c2c1CS(=O)(=O)c1ccccc1-2)N1CCOCC1
7 | 122 nM | O=C(c1nn(C2CCCN(CCN3CCOCC3)C2)c2c1CS(=O)(=O)c1ccccc1-2)N1CCOCC1 (centres undefined)
8 | 229 nM | O=C(c1nn(-c2ccc(CN3CC(F)C3)cc2)c2c1CS(=O)(=O)c1ccccc1-2)N1CCOCC1
9 | 2100 nM | CS(=O)(=O)C1CCC(n2nc(C(=O)N3CCOCC3)c3c2-c2ccccc2S(=O)(=O)C3)CC1 (centres undefined)
10 | 140 nM | COCCCN1CCCC(n2nc(C(=O)N3CCOCC3)c3c2-c2ccccc2S(=O)(=O)C3)C1 (centres undefined)
11 | 673 nM | O=C(c1nn(-c2cccc(N3CCOCC3)c2)c2c1CS(=O)(=O)c1ccccc1-2)N1CCOCC1
12 | 1190 nM | O=C(c1nn(Cc2ccccc2)c2c1CS(=O)(=O)c1ccccc1-2)N1CCOCC1
13 | 4520 nM | CS(=O)(=O)c1ccc(-n2nc(C(=O)N3CCOCC3)c3c2-c2ccccc2S(=O)(=O)C3)cc1
14 | 2930 nM | O=C(c1nn([C@@H]2CCCN(C3CCCOC3)C2)c2c1CS(=O)(=O)c1ncccc1-2)N1CCOCC1 (some centres undefined)
15 | 749 nM | COc1ccc(-n2nc(C(=O)N3CCOCC3)c3c2-c2ccccc2S(=O)(=O)C3)cc1
16 | 9880 nM | CC(=O)Nc1cccc2c1S(=O)(=O)Cc1c(C(=O)N3CCOCC3)nn(-c3ccccc3)c1-2
17 | 2220 nM | Cn1nc(C(=O)N2CCOCC2)c2c1-c1cc(F)ccc1S(=O)(=O)C2
18 | 15 nM | COc1ccc2c(c1)S(=O)(=O)Cc1c(C(=O)N3CCOCC3)nn([C@H]3CCCN(CCN4CC(F)(F)C4)C3)c1-2
19 | 254 nM | O=C(c1nn(C2CCCN(C3CCOCC3)C2)c2c1CS(=O)(=O)c1ccccc1-2)N1CCOCC1 (centres undefined)
20 | 159 nM | CN(C)CC(C)(C)c1ccc(-n2nc(C(=O)N3CCOCC3)c3c2-c2ccccc2S(=O)(=O)C3)cc1
21 | 45 nM | O=C(c1nn([C@H]2CCCN(Cc3ccncc3)C2)c2c1CS(=O)(=O)c1ccccc1-2)N1CCOCC1
22 | 373 nM | O=C(c1nn(-c2ccc(F)cc2)c2c1CS(=O)(=O)c1ccccc1-2)N1CCOCC1

Row | IC50 | Compound
23 | 45 nM | O=C(c1nn([C@@H]2CCN(C3CCOCC3)C2)c2c1CS(=O)(=O)c1ccccc1-2)N1CCOCC1
24 | 48 nM | O=C(c1nn([C@H]2CCCN(c3cccnc3)C2)c2c1CS(=O)(=O)c1ccccc1-2)N1CCOCC1
25 | 587 nM | CC(C)(C)CCN1CCCC(n2nc(C(=O)N3CCOCC3)c3c2-c2ccccc2S(=O)(=O)C3)C1 (centres undefined)
26 | 238 nM | O=C(c1ccc(-n2nc(C(=O)N3CCOCC3)c3c2-c2ccccc2S(=O)(=O)C3)cc1)N1CCCCC1
27 | 1640 nM | O=C(c1nn(-c2ccc3[nH]ncc3c2)c2c1CS(=O)(=O)c1ccccc1-2)N1CCOCC1
28 | 498 nM | CC1(C)CCCC(n2nc(C(=O)N3CCOCC3)c3c2-c2ccccc2S(=O)(=O)C3)C1 (centres undefined)
29 | 44 nM | COc1ccc2c(c1)S(=O)(=O)Cc1c(C(=O)N3CCOCC3)nn([C@H]3CCCN(CC4CCOC4)C3)c1-2 (some centres undefined)
30 | 18 nM | O=C(c1nn([C@H]2CCCN(CCN3CCC(O)CC3)C2)c2c1CS(=O)(=O)c1ccccc1-2)N1CCOCC1
31 | 128 nM | COCCN1CCC[C@H](n2nc(C(=O)N3CCOCC3)c3c2-c2cccc(OC)c2S(=O)(=O)C3)C1
32 | 73 nM | CC1(C)CN(CCN2CCC[C@H](n3nc(C(=O)N4CCOCC4)c4c3-c3ccccc3S(=O)(=O)C4)C2)CCO1
33 | 93 nM | COCCN1CCC[C@H](n2nc(C(=O)N3CCOCC3)c3c2-c2ccc(OC)cc2S(=O)(=O)C3)C1
34 | 34 nM | O=C(c1nn(C2CCCN(CCN3CCC(F)CC3)C2)c2c1CS(=O)(=O)c1ccccc1-2)N1CCOCC1 (centres undefined)
35 | 36 nM | O=C(c1nn(C2CCCN(CCN3CC(F)(F)C3)C2)c2c1CS(=O)(=O)c1ccccc1-2)N1CCOCC1 (centres undefined)
36 | 277 nM | COC1CN(Cc2cccc(-n3nc(C(=O)N4CCOCC4)c4c3-c3ccccc3S(=O)(=O)C4)c2)C1
37 | 2950 nM | Cn1cc(-n2nc(C(=O)N3CCOCC3)c3c2-c2ccccc2S(=O)(=O)C3)ccc1=O
38 | 348 nM | O=C(c1cccc(-n2nc(C(=O)N3CCOCC3)c3c2-c2ccccc2S(=O)(=O)C3)c1)N1CCCC(O)C1 (centres undefined)
39 | 134 nM | Cc1nc(CN2CCCC(n3nc(C(=O)N4CCOCC4)c4c3-c3ccccc3S(=O)(=O)C4)C2)no1 (centres undefined)
40 | 2880 nM | O=C(c1n[nH]c2c1CS(=O)(=O)c1ccccc1-2)N1CCOCC1
41 | 426 nM | CC1CCC(n2nc(C(=O)N3CCOCC3)c3c2-c2ccccc2S(=O)(=O)C3)CC1 (centres undefined)
42 | 477 nM | O=C(c1nn(-c2ccccc2)c2c1CS(=O)(=O)c1nccn1-2)N1CCOCC1
43 | 138 nM | CC(C)CCN1CCCC(n2nc(C(=O)N3CCOCC3)c3c2-c2ccccc2S(=O)(=O)C3)C1 (centres undefined)
44 | 859 nM | O=C(c1nn(-c2ccc(CN3CCC(O)C3)cc2)c2c1CS(=O)(=O)c1ccccc1-2)N1CCOCC1 (centres undefined)
